The supplement of paper PMC10307832

Experiments:
Test in all cases: relative viability (nuclei count vs DMSO), 5 days (fraction); higher = more cells survive
Gemcitabine + Tozasertib = compound: Nc1ccn([C@@H]2O[C@H](CO)[C@@H](O)C2(F)F)c(=O)n1 [Gemcitabine] + Cc1cc(Nc2cc(N3CCN(C)CC3)nc(Sc3ccc(NC(=O)C4CC4)cc3)n2)n[nH]1 [Tozasertib] (partner 0.1 µM)
Procedure, shortened: (§1)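 Relative viability divides the nuclei count in treated wells by that in vehicle wells. Lung cancer cell lines were seeded in 1536-well plates, dosed by pin tool the next day, and fixed and stained after 5 days in one step with final 0.05% Triton X-100, 1% formaldehyde and 1 ug/ml Hoechst. Dosing was a single drug or a fixed anchor-drug dose plus five library-drug doses (not always all listed) in √10 steps, and values are medians of duplicate plates imaged at 4×.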

Gemcitabine + Navitoclax = compound: Nc1ccn([C@@H]2O[C@H](CO)[C@@H](O)C2(F)F)c(=O)n1 [Gemcitabine] + CC1(C)CCC(c2ccc(Cl)cc2)=C(CN2CCN(c3ccc(C(=O)NS(=O)(=O)c4ccc(N[C@H](CCN5CCOCC5)CSc5ccccc5)c(S(=O)(=O)C(F)(F)F)c4)cc3)CC2)C1 [Navitoclax] (partner 0.5 µM)
Procedure, shortened: as §1

Gemcitabine + Crizotinib = compound: Nc1ccn([C@@H]2O[C@H](CO)[C@@H](O)C2(F)F)c(=O)n1 [Gemcitabine] + C[C@@H](Oc1cc(-c2cnn(C3CCNCC3)c2)cnc1N)c1c(Cl)ccc(F)c1Cl [Crizotinib] (partner 1 µM)
Procedure, shortened: as §1

Gemcitabine + Vorinostat = compound: Nc1ccn([C@@H]2O[C@H](CO)[C@@H](O)C2(F)F)c(=O)n1 [Gemcitabine] + O=C(CCCCCCC(=O)Nc1ccccc1)NO [Vorinostat] (partner 1 µM)
Procedure, shortened: as §1

Row | Cell Line | relative viability (Gemcitabine + Tozasertib; first compound 0.001 µM) | relative viability (Gemcitabine + Tozasertib; first compound 0.003162 µM) | relative viability (Gemcitabine + Tozasertib; first compound 0.01 µM) | relative viability (Gemcitabine + Tozasertib; first compound 0.03162 µM) | relative viability (Gemcitabine + Tozasertib; first compound 0.1 µM) | relative viability (Gemcitabine + Navitoclax; first compound 0.001 µM) | relative viability (Gemcitabine + Navitoclax; first compound 0.003162 µM) | relative viability (Gemcitabine + Navitoclax; first compound 0.01 µM) | relative viability (Gemcitabine + Navitoclax; first compound 0.03162 µM) | relative viability (Gemcitabine + Navitoclax; first compound 0.1 µM) | relative viability (Gemcitabine + Crizotinib; first compound 0.001 µM) | relative viability (Gemcitabine + Crizotinib; first compound 0.003162 µM) | relative viability (Gemcitabine + Crizotinib; first compound 0.01 µM) | relative viability (Gemcitabine + Crizotinib; first compound 0.03162 µM) | relative viability (Gemcitabine + Crizotinib; first compound 0.1 µM) | relative viability (Gemcitabine + Vorinostat; first compound 0.001 µM) | relative viability (Gemcitabine + Vorinostat; first compound 0.003162 µM) | relative viability (Gemcitabine + Vorinostat; first compound 0.01 µM) | relative viability (Gemcitabine + Vorinostat; first compound 0.03162 µM) | relative viability (Gemcitabine + Vorinostat; first compound 0.1 µM)
1 | HARA | 0.12 | 0.103 | 0.095 | 0.0811 | 0.042 | 1.15 | 1.17 | 1.1 | 0.289 | 0.0674 | 0.975 | 1.02 | 1.02 | 0.3 | 0.124 | 0.497 | 0.538 | 0.444 | 0.0835 | 0.0515
2 | NCI-H2126 | 0.866 | 0.802 | 0.756 | 0.471 | 0.245 | 0.821 | 0.815 | 0.812 | 0.728 | 0.369 | 1.04 | 0.999 | 0.968 | 0.644 | 0.41 | 0.841 | 0.837 | 0.707 | 0.515 | 0.275
3 | LXF-289 | 0.254 | 0.199 | 0.111 | 0.0735 | 0.0697 | 0.934 | 0.925 | 0.655 | 0.084 | 0.0735 | 0.786 | 0.783 | 0.562 | 0.127 | 0.112 | 0.754 | 0.731 | 0.292 | 0.107 | 0.0902
4 | NCI-H460 | 0.535 |  | 0.299 | 0.0246 | 0.0096 | 1.09 | 1.05 | 0.533 | 0.0127 | 0.0085 | 1.12 | 0.894 | 0.528 | 0.0182 | 0.0089 | 0.855 | 0.736 | 0.458 | 0.0301 | 0.0175
5 | NCI-H2170 | 0.824 | 0.735 | 0.469 | 0.154 | 0.134 | 0.72 | 0.52 | 0.458 | 0.183 | 0.162 | 1.39 | 1.23 | 0.615 | 0.161 | 0.155 | 0.829 | 0.843 | 0.538 | 0.113 | 0.105
6 | NCI-H2009 | 0.854 | 0.65 | 0.24 | 0.163 | 0.11 | 1.25 | 0.87 | 0.366 | 0.0871 | 0.0975 | 1.18 | 0.841 | 0.227 | 0.102 | 0.0943 | 0.604 | 0.552 | 0.289 | 0.115 | 0.0881
